Source: patent US12708136B2, “Supported nicotine composition” (priority 2021, dated 2026)

Conditions: nicotine used in the experiments
Protocol: Mixtures were prepared of 10%, 20% and 50% by weight of nicotine on Florite® PS-200 grade and on Florite® R-grade.

In the case of `CN1CCCC1c1cccnc1` (stereo not shown) [nicotine], the “starting level of impurity myosmine” value is reported as 0.14%.
